Experiments:
Experiment in all cases: relative viability (nuclei count vs DMSO), 5 days (fraction); higher = more cells survive
[1] = compound: O=C(O)c1ccc2c(c1)nc(Nc1cccc(Cl)c1)c1ccncc12 [Silmitasertib] + CC(=O)c1c(C)c2cnc(Nc3ccc(N4CCNCC4)cn3)nc2n(C2CCCC2)c1=O [Palbociclib] (partner 0.5 µM)
Method in brief: (§1)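 Medians of duplicate plates are given as relative viability. That measure is the nuclei count in treated wells divided by the count in vehicle wells. Counts were taken on 4× images of lung cancer cell lines in 1536-well plates, 5 days after pin-tool dosing the day after seeding with one drug alone or a fixed anchor-drug dose plus five library-drug doses (not always all listed) in √10 steps.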

[2] = compound: O=C(O)c1ccc2c(c1)nc(Nc1cccc(Cl)c1)c1ccncc12 [Silmitasertib] + CCNC(=O)c1noc(-c2cc(C(C)C)c(O)cc2O)c1-c1ccc(CN2CCOCC2)cc1 [Luminespib] (partner 0.01 µM)
Method in brief: as §1

[3] = compound: O=C(O)c1ccc2c(c1)nc(Nc1cccc(Cl)c1)c1ccncc12 [Silmitasertib] + C[C@]1(O)C[C@@H](c2nc(-c3ccc4ccc(-c5ccccc5)nc4c3)c3c(N)nccn32)C1 [Linsitinib] (partner 1 µM)
Method in brief: as §1

Silmitasertib + AZD7762 = compound: O=C(O)c1ccc2c(c1)nc(Nc1cccc(Cl)c1)c1ccncc12 [Silmitasertib] + NC(=O)Nc1cc(-c2cccc(F)c2)sc1C(=O)N[C@H]1CCCNC1 [AZD7762] (partner 0.2 µM)
Method in brief: as §1

Silmitasertib + Olaparib = compound: O=C(O)c1ccc2c(c1)nc(Nc1cccc(Cl)c1)c1ccncc12 [Silmitasertib] + O=C(c1cc(Cc2n[nH]c(=O)c3ccccc23)ccc1F)N1CCN(C(=O)C2CC2)CC1 [Olaparib] (partner 8 µM)
Method in brief: as §1

Cell Line	relative viability ([1]; first compound 0.04 µM)	relative viability ([1]; first compound 0.4 µM)	relative viability ([1]; first compound 1.265 µM)	relative viability ([1]; first compound 4 µM)	relative viability ([2]; first compound 0.04 µM)	relative viability ([2]; first compound 0.4 µM)	relative viability ([2]; first compound 1.265 µM)	relative viability ([2]; first compound 4 µM)	relative viability ([3]; first compound 0.04 µM)	relative viability ([3]; first compound 0.4 µM)	relative viability ([3]; first compound 1.265 µM)	relative viability ([3]; first compound 4 µM)	relative viability (Silmitasertib + AZD7762; first compound 0.04 µM)	relative viability (Silmitasertib + AZD7762; first compound 0.4 µM)	relative viability (Silmitasertib + AZD7762; first compound 1.265 µM)	relative viability (Silmitasertib + AZD7762; first compound 4 µM)	relative viability (Silmitasertib + Olaparib; first compound 0.04 µM)	relative viability (Silmitasertib + Olaparib; first compound 0.4 µM)	relative viability (Silmitasertib + Olaparib; first compound 1.265 µM)	relative viability (Silmitasertib + Olaparib; first compound 4 µM)
EMC-BAC-2	0.521	0.448	0.378	0.292	1.22	1.13	0.876	0.39	0.891	0.769	0.709	0.686	1.22	1.04	1.08	0.662	0.477	0.358	0.333	0.283
EPLC-272H	0.319		0.343	0.304	1.05		0.18	0.181	1.31		0.84	0.862	0.232		0.275	0.217	1.02	0.563	0.489	0.0904
H3255	0.319	0.348	0.316	0.294	0.893	0.849	1.02	0.504	1.09	0.944	0.903	0.991	1.09	0.808	0.807	0.77	0.579	0.492	0.549	0.53
HARA	0.389	0.252	0.201	0.261	0.738	0.724	0.396	0.646	1.1	0.753	0.77	0.729	0.411	0.289	0.589	0.443	1.25	0.595	0.634	0.276
HCC-15	0.77	0.491	0.564	0.367	0.368	0.204	0.281	0.207	0.882	0.681	0.671	0.475	1.19	0.884	1.15	0.875	0.777	0.508	0.595	0.39
HCC-44	0.975	1.06	1.01	0.959	1.14	1.07	1.05	1.09	0.7	0.673	0.665	0.691	0.978	1.04	1.08	0.978	0.972	0.822	1.06	1.02
HCC-78	0.521	0.432	0.497	0.455					0.723	0.469	0.375	0.481	0.783	0.469	0.405	0.475	0.92	0.42	0.509	0.734
HCC-366	0.422	0.329	0.36	0.38					0.869		0.366	0.379	0.254	0.188	0.371	0.147	0.396	0.213	0.373	0.387
HCC-827	0.556		0.343	0.442	0.616		0.524	0.355	0.967		1.18	1.18	0.234		0.214	0.205	0.659		0.705	0.735

Reference: the supplement of paper PMC10307832
